Like-named read-outs stand apart in the source and are kept apart here.
How the values were obtained:
Assay type in all cases: in vivo
[1] = tested on: Diamond Back Moth (Plutella xylostella); experiment: Diamond back moth, cabbage leaf dip test; details: foliar
Description: B.1 Diamond Back Moth (Plutella xylostella)
The active compound was dissolved at the desired concentration in a mixture of 1:1 (vol:vol) distilled water:aceteone. Surfactant (Kinetic HV) was added at a rate of 0.01% (vol/vol). The test solution was prepared at the day of use.
Leaves of cabbage were dipped in test solution and air-dried. Treated leaves were placed in petri dishes lined with moist filter paper and inoculated with ten 3rd instar larvae. Mortality was recorded 72 hours after treatment.

[2] = tested on: Vetch Aphid (Megoura viciae); experiment: Vetch aphid, broad bean leaf disk test; details: foliar, 120 h
Description: B.3 Vetch Aphid (Megoura viciae)
For evaluating control of vetch aphid (Megoura viciae) through contact or systemic means the test unit consisted of 24-well-microtiter plates containing broad bean leaf disks.
The compounds were formulated using a solution containing 75% v/v water and 25% v/v DMSO. Different concentrations of formulated compounds were sprayed onto the leaf disks at 2.5 μl, using a custom built micro atomizer, at two replications.
After application, the leaf disks were air-dried and 5-8 adult aphids placed on the leaf disks inside the microtiter plate wells. The aphids were then allowed to suck on the treated leaf disks and incubated at about 23±1° C. and about 50±5% relative humidity for 5 days. Aphid mortality and fecundity was then visually assessed.

[3] = tested on: Tobacco Budworm (Heliothis virescens); experiment: Tobacco budworm, insect diet microtiter plate test; details: 120 h
Description: B.4 Tobacco Budworm (Heliothis virescens)
For evaluating control of tobacco budworm (HeliothiS virescens) the test unit consisted of 96-well-microtiter plates containing an insect diet and 15-25 H. virescens eggs.
The compounds were formulated using a solution containing 75% v/v water and 25% v/v DMSO. Different concentrations of formulated compounds were sprayed onto the insect diet at 10 μl, using a custom built micro atomizer, at two replications.
(§1) After application, microtiter plates were incubated at about 28±1° C. and about 80±5% relative humidity for 5 days. Egg and larval mortality was then visually assessed.

[4] = tested on: Boll Weevil (Anthonomus grandis); experiment: Boll weevil, insect diet microtiter plate test; details: 120 h
Description: B.5 Boll Weevil (Anthonomus grandis)
For evaluating control of boll weevil (Anthonomus grandis) the test unit consisted of 96-well-microtiter plates containing an insect diet and 5-10 A. grandis eggs.
The compounds were formulated using a solution containing 75% v/v water and 25% v/v DMSO. Different concentrations of formulated compounds were sprayed onto the insect diet at 5 μl, using a custom built micro atomizer, at two replications.
After application, microtiter plates were incubated at about 25±1° C. and about 75±5% relative humidity for 5 days. Egg and larval mortality was then visually assessed.

[5] = tested on: Mediterranean Fruitfly (Ceratitis capitata); experiment: Mediterranean fruitfly, insect diet microtiter plate test; details: 120 h
Description: B.6 Mediterranean Fruitfly (Ceratitis capitata)
For evaluating control of Mediterranean fruitfly (CeratitiS capitata) the test unit consisted of microtiter plates containing an insect diet and 50-80 C. capitata eggs. The compounds were formulated using a solution containing 75% v/v water and 25% v/v DMSO. Different concentrations of formulated compounds were sprayed onto the insect diet at 5 μl, using a custom built micro atomizer, at two replications.
as §1

[6] = tested on: Orchid Thrips (dichromothrips corbetti); experiment: Orchid thrips, floral-immersion technique
Description: B.7 Orchid Thrips (dichromothrips corbetti)
Dichromothrips corbetti adults used for bioassay were obtained from a colony maintained continuously under laboratory conditions. For testing purposes, the test compound is diluted in a 1:1 mixture of acetone:water (vol:vol), plus Kinetic HV at a rate of 0.01% v/v.
Thrips potency of each compound was evaluated by using a floral-immersion technique. All petals of individual, intact orchid flowers were dipped into treatment solution and allowed to dry in Petri dishes. Treated petals were placed into individual re-sealable plastic along with about 20 adult thrips. All test arenas were held under continuous light and a temperature of about 28° C. for duration of the assay. After 3 days, the numbers of live thrips were counted on each petal. The percent mortality was recorded 72 hours after treatment.

[7] = tested on: Green Peach Aphid (Myzus persicae); experiment: Green peach aphid, systemic test on artificial diet in microtiter plates; details: 72 h
Source text: B.2 Green Peach Aphid (Myzus persicae)
For evaluating control of green peach aphid (Myzus persicae) through systemic means the test unit consisted of 96-well-microtiter plates containing liquid artificial diet under an artificial mem brane.
The compounds were formulated using a solution containing 75% v/v water and 25% v/v DMSO. Different concentrations of formulated compounds were pipetted into the aphid diet, using a custom built pipetter, at two replications.
After application, 5-8 adult aphids were placed on the artificial membrane inside the microtiter plate wells. The aphids were then allowed to suck on the treated aphid diet and incubated at about 23±1° C. and about 50±5% relative humidity for 3 days. Aphid mortality and fecundity was then visually assessed.

[8] = tested on: Rice Green Leafhopper (Nephotettix virescens); experiment: Rice green leafhopper, sprayed rice seedlings; details: 72 h
Description: B.8 Rice Green Leafhopper (Nephotettix virescens)
Rice seedlings were cleaned and washed 24 hours before spraying. The active compounds were formulated in 1:1 acetone:water (vol:vol), and 0.01% vol/vol surfactant (Kinetic HV) was added. Potted rice seedlings were sprayed with 5-6 ml test solution, air dried, covered with Mylar cages cages and inoculated with 10 adults. Treated rice plants were kept at about 28-29° C. and relative humidity of about 50-60%. Percent mortality was recorded after 72 hours.

[9] = tested on: Red Spider Mite (Tetranychus kanzawai); experiment: Red spider mite, sprayed cowpea beans; details: 72 h
Description: B.9 Red Spider Mite (Tetranychus kanzawai)
The active compound was dissolved at the desired concentration in a mixture of 1:1 (vol:vol) distilled water:acetone. Add surfactant (Kinetic HV) was added at a rate of 0.01% (vol/vol). The test solution was prepared at the day of use.
Potted cowpea beans of 4-5 days of age were cleaned with tap water and sprayed with 1-2 ml of the test solution using air driven hand atomizer. The treated plants were allowed to air dry and afterwards inoculated with 30 or more mites by clipping a cassava leaf section from rearing population. Treated plants were placed inside a holding room at about 25-27° C. and about 50-60% relative humidity. Percent mortality was assessed 72 hours after treatment.

[10] = tested on: Green Soldier Stink Bug (Nezara viridula); experiment: Green soldier stink bug, sprayed soybean pods in Petri dishes; details: 120 h
Description: B.11 Green Soldier Stink Bug (Nezara viridula)
The active compound was dissolved at the desired concentration in a mixture of 1:1 (vol:vol) distilled water:acetone. Surfactant (Kinetic HV) was added at a rate of 0.01% (vol/vol). The test solution was prepared at the day of use.
Soybean pods were placed in glass Petri dishes lined with moist filter paper and inoculated with ten late 3rd instar N. viridula. Using a hand atomizer, approximately 2 ml solution is sprayed into each Petri dish. Assay arenas were kept at about 25° C. Percent mortality was recorded after 5 days.

[11] = tested on: Neotropical Brown Stink Bug (Euschistus heros); experiment: Neotropical brown stink bug, sprayed soybean pods in cups; details: 120 h
Description: B.12 Neotropical Brown Stink Bug (Euschistus heros)
(§2) The active compound was dissolved at the desired concentration in a mixture of 1:1 (vol:vol) distilled water: acetone. Surfactant (Kinetic HV) was added at a rate of 0.01% (vol/vol). The test solution was prepared at the day of use.
Soybean pods were placed in microwavable plastic cups and inoculated with ten adult stage E. heros. Using a hand atomizer, approximately 1 ml solution is sprayed into each cup, insects and food present. A water source was provided (cotton wick with water). Each treatment was replicated 2-fold. Assay arenas were kept at about 25° C. Percent mortality was recorded after 5 days.

[12] = tested on: Brown Marmorated Stink Bug (Halyomorpha halys); experiment: Brown marmorated stink bug, sprayed peanuts and soybean seeds in cups; details: 120 h
Description: B.13 Brown Marmorated Stink Bug (Halyomorpha halys)
as §2
Row peanuts and soybean seeds were placed into microwavable plastic cups and inoculated with five adult stage H. halys. Using a hand atomizer, approximately 1 ml solution is sprayed into each cup, insects and food present. A water source was provided (cotton wick with water). Each treatment is replicated 4-fold. Assay arenas are kept at about 25° C. Percent mortality was recorded after 5 days.

[13] = 2500 ppm, adult aphids on treated artificial diet, 3 days, in comparison with untreated controls, read-out: mortality
[14] = 2500 ppm, eggs on sprayed insect diet, egg and larval mortality after 5 days, in comparison with untreated controls, read-out: mortality

COC(=O)c1ccc(C2=NOC(c3cc(Cl)c(F)c(Cl)c3)(C(F)(F)F)C2)c2c1CCC2 (stereo not shown) [Compound 1-1, Methyl 7-[5-(3,5-dichloro-4-fluoro-phenyl)-5-(trifluoromethyl)-4H-isoxazol-3-yl]indane-4-carboxylate]
≥ 75%: mortality at 300 ppm ([1]; 72 h) | mortality at 2500 ppm [2] | mortality at 2500 ppm [3] | mortality at 2500 ppm [4] | mortality at 2500 ppm [5] | mortality at 300 ppm ([6]; Thrips, 72 h)

O=C(NCC1CC1)c1ccc(C2=NOC(c3cc(Cl)c(F)c(Cl)c3)(C(F)(F)F)C2)c2c1CCC2 (stereo not shown) [Compound 1-3, N-(Cyclopropylmethyl)-7-[5-(3,5-dichloro-4-fluoro-phenyl)-5-(trifluoromethyl)-4H-isoxazol-3-yl]indane-4-carboxamide]
≥ 75%: mortality at 300 ppm ([1]; 72 h) | mortality at 2500 ppm [7] | mortality at 2500 ppm [2] | mortality at 2500 ppm [3] | mortality at 2500 ppm [4] | mortality at 2500 ppm [5] | mortality at 300 ppm ([6]; Thrips, 72 h) | mortality at 300 ppm [8] | mortality at 300 ppm [9] | mortality at 300 ppm [10] | mortality at 100 ppm [11] | mortality at 100 ppm [12]

O=C(NCC(F)(F)F)c1ccc(C2=NOC(c3cc(Cl)cc(Cl)c3)(C(F)(F)F)C2)c2c1CCCC2 (stereo not shown) [Compound 3-5, 8-[5-(3,5-dichlorophenyl)-5-(trifluoromethyl)-4H-isoxazol-3-yl]-N-(2,2,2-trifluoroethyl)tetralin-5-carboxamide]
≥ 75%: mortality at 300 ppm ([1]; 72 h) | mortality at 2500 ppm [7] | mortality at 2500 ppm [2] | mortality at 2500 ppm [3] | mortality at 2500 ppm [4] | mortality at 2500 ppm [5] | mortality at 300 ppm ([6]; Thrips, 72 h) | mortality at 300 ppm [8] | mortality at 300 ppm [9]

O=C(O)c1ccc(C2=NOC(c3cc(Cl)c(F)c(Cl)c3)(C(F)(F)F)C2)c2c1CCC2 (stereo not shown) [Compound 1-2, 7-[5-(3,5-Dichloro-4-fluoro-phenyl)-5-(trifluoromethyl)-4H-isoxazol-3-yl]indane-4-carboxylic acid]
≥ 75%: mortality at 300 ppm ([1]; 72 h) | mortality at 2500 ppm [3] | mortality at 2500 ppm [4]

O=C(O)c1ccc(C2=NCC(c3cc(Cl)c(F)c(Cl)c3)(C(F)(F)F)C2)c2c1CCC2 (stereo not shown) [Compound 2-1, 7-[3-(3,5-Dichloro-4-fluoro-phenyl)-3-(trifluoromethyl)-2,4-dihydropyrrol-5-yl]indane-4-carboxylic acid]
≥ 75%: mortality at 300 ppm ([1]; 300 ppm, 3rd instar larvae on dipped cabbage leaves, 72 hours after treatment, in comparison with untreated controls, read-out: mortality) | mortality at 2500 ppm [7, 13] | mortality at 2500 ppm [3, 14] | mortality at 2500 ppm [4, 14]

O=C(O)c1ccc(C2=NOC(c3cc(Cl)cc(Cl)c3)(C(F)(F)F)C2)c2c1CCCC2 (stereo not shown) [Compound 3-2, 8-[5-(3,5-dichlorophenyl)-5-(trifluoromethyl)-4H-isoxazol-3-yl]tetralin-5-carboxylic acid]
≥ 75%: mortality at 2500 ppm [4]

COC(=O)c1ccc(C2=NCC(c3cc(Cl)c(F)c(Cl)c3)(C(F)(F)F)C2)c2c1CCC2 (stereo not shown) [Compound 2-2, Methyl 7-[3-(3,5-dichloro-4-fluoro-phenyl)-3-(trifluoromethyl)-2,4-dihydropyrrol-5-yl]indane-4-carboxylate]
≥ 75%: mortality at 2500 ppm [7, 13] | mortality at 2500 ppm ([2]; 2500 ppm, adult aphids on sprayed broad bean leaf disks, 5 days, in comparison with untreated controls, read-out: mortality) | mortality at 2500 ppm [3, 14] | mortality at 2500 ppm [4, 14] | mortality at 300 ppm ([6]; 300 ppm, adult thrips on dipped orchid petals, 72 hours after treatment, in comparison with untreated controls, read-out: mortality)
